# Results: US20250154686A1, “COMPOUND LIBRARY” (CHUGAI SEIYAKU KABUSHIKI KAISHA, priority 2021, published 2025)
# Target: T1, Bcl-2 protein (Recombinant Human Bcl-2 Protein) (Homo sapiens, UniProt P10415)
# T1 construct: purchased Novus Biologicals NBP2-34889
# Test: AS-MS evaluation of binding of the Example 4 mixture library (1200 compounds/well) to Bcl-2, ASMS ratio (%)
# Outline: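 Affinity-selection MS: 1200 cpds/well, 20 nM each; hBcl-2 20 μM; 25 mM Tris pH 7.4/150 mM NaCl/0.025% Tween-20/1 mM DTT; 1 h, 23 °C, dark; P-2 size-exclusion spin, MeCN:MeOH 1:1 extraction; RP LC/MS; ratio vs no-protein STD and SEC blank.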
# [1] = replicate n = 1, mixture library, value belongs to the MS peak assigned to the compound
# [2] = replicate n = 2, mixture library, value belongs to the MS peak assigned to the compound
# [3] = AS-MS, mixture of 1200 compounds/well, Bcl-2 protein, replicate n = 1
# [4] = AS-MS, mixture of 1200 compounds/well, Bcl-2 protein, replicate n = 2
# [5] = AS-MS, Example 4 mixture library, Bcl-2, replicate n = 1
# [6] = AS-MS, Example 4 mixture library, Bcl-2, replicate n = 2
# T1 sequence (P10415 whole entry): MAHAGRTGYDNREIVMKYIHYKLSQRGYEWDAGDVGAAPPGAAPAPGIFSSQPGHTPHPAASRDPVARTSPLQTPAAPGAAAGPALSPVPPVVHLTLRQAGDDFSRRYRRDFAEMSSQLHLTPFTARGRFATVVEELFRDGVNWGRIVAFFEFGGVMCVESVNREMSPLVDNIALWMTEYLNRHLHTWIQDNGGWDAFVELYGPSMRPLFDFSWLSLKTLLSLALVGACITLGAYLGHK
Compound,ASMS ratio (%) n = 1 [1] [%],ASMS ratio (%) n = 2 [2] [%],other results
CCOc1cncc(C#Cc2ccccc2C(=O)N2CCN(c3ccc(C(=O)NS(=O)(=O)C(C)(C)C)nn3)CC2)c1 [Compound B2L008-01],0.0,0.0,–
CCCNC(=O)c1ccc(N2CCN(Cc3ccc(-c4cccc(OCC)c4)c(C)c3)CC2)nn1 [Compound B1M073-01],–,–,ASMS ratio (%) n = 1 [3]: 0.4%; ASMS ratio (%) n = 2 [4]: −0.5%
"CCOc1cncc(-c2ccc(CN3CCN(c4ccc(C(=O)NS(C)(=O)=O)cc4)CC3)c(CC)c2)c1 [Compound B2I050-01, 4-[4-[[4-(5-Ethoxypyridin-3-yl)-2-ethylphenyl]methyl]piperazin-1-yl]-N-methylsulfonylbenzamide]",0.0,−1.5,–
"CCOc1cncc(-c2cc(OC)c(CN3CCN(c4ccc(C(=O)NS(=O)(=O)CCC(F)(F)F)nn4)CC3)c(OC)c2)c1 [Compound B2N086-01, 6-[4-[[4-(5-Ethoxypyridin-3-yl)-2,6-dimethoxyphenyl]methyl]piperazin-1-yl]-N-(3,3,3-trifluoropropylsulfonyl)pyridazine-3-carboxamide]",–,–,ASMS ratio (%) n = 1 [5]: 0.0%; ASMS ratio (%) n = 2 [6]: 0.0%
"CCOc1cncc(-c2ccc(C(=O)N3CCN(c4ccc(C(=O)NS(=O)(=O)c5ccc(NCCSc6ccccc6)c(C(F)(F)F)c5)nn4)CC3)c3ccccc23)c1 [Compound B2R014-01, 6-[4-[4-(5-Ethoxypyridin-3-yl)naphthalene-1-carbonyl]piperazin-1-yl]-N-[4-(2-phenylsulfanylethylamino)-3-(trifluoromethyl)phenyl]sulfonylpyridazine-3-carboxamide]",–,–,ASMS ratio (%) n = 1 [5]: 18.6%; ASMS ratio (%) n = 2 [6]: 15.1%
"CCOc1cccc(-c2cc(CN3CCN(c4ccc(C(=O)NS(=O)(=O)CCC(F)(F)F)nn4)CC3)cc(C(F)(F)F)c2)c1 [Compound B2N087-01, 6-[4-[[3-(3-Ethoxyphenyl)-5-(trifluoromethyl)phenyl]methyl]piperazin-1-yl]-N-(3,3,3-trifluoropropylsulfonyl)pyridazine-3-carboxamide]",–,–,ASMS ratio (%) n = 1 [5]: 0.0%; ASMS ratio (%) n = 2 [6]: 0.0%
"CCOc1cccc(-c2cc(CN3CCN(c4ccc(C(=O)NS(C)(=O)=O)cc4)CC3)cc(OC(C)C)c2)c1 [Compound B2I057-01, 4-[4-[[3-(3-Ethoxyphenyl)-5-propan-2-yloxyphenyl]methyl]piperazin-1-yl]-N-methylsulfonylbenzamide]",0.0,0.0,–
CCCNC(=O)c1ccc(N2CCN(C(=O)c3cc(-n4cc(-c5cccc(OCC)c5)cn4)cc(C(F)(F)F)c3)CC2)nn1 [Compound B1M021-01],–,–,ASMS ratio (%) n = 1 [3]: 0.0%; ASMS ratio (%) n = 2 [4]: 0.0%
"CCOc1cncc(-c2ccccc2CCC(=O)N2CCN(c3ccc(C(=O)NS(=O)(=O)C(C)(C)C)cc3)CC2)c1 [Compound B2L034-01, N-tert-Butylsulfonyl-4-[4-[3-[2-(5-ethoxypyridin-3-yl)phenyl]propanoyl]piperazin-1-yl]benzamide]",1.6,3.5,–

# More lines, main results first:
ASMS ratio (%) n = 1 [1] [%],ASMS ratio (%) n = 2 [2] [%],Compound,other results
1.4,0.0,"CCOc1cccc(-c2cc(CN3CCN(c4ccc(C(=O)NS(C)(=O)=O)nn4)CC3)cc(OC(F)(F)F)c2)c1 [Compound B2I089-01, 6-[4-[[3-(3-Ethoxyphenyl)-5-(trifluoromethoxy)phenyl]methyl]piperazin-1-yl]-N-methylsulfonylpyridazine-3-carboxamide]",–
−67.5,0.0,CCOc1cccc(-c2csc(C(=O)N3CCN(c4ccc(C(=O)NS(=O)(=O)C(C)(C)C)nn4)CC3)c2)c1 [Compound B2L001-01],–
0.0,0.0,"CCOc1cccc(C#Cc2cncc(C(=O)N3CCN(c4ccc(C(=O)NS(=O)(=O)C(C)(C)C)nn4)CC3)c2)c1 [Compound B2L009-01, N-tert-Butylsulfonyl-6-[4-[5-[2-(3-ethoxyphenyl)ethynyl]pyridine-3-carbonyl]piperazin-1-yl]pyridazine-3-carboxamide]",–
